According to US20220296590A1, “STEREOISOMERS OF THE COMPOUND 3-(BENZO[D][1,3]DIOXOL-5-YL)-7-(1-HYDROXYPROPAN-2-YL)-1-(1H-INDOL-3-YL)-6,7-DIHYDRO-3H-OXAZOL[3,4-A]PYRAZINE-5,8-DIONE AND USE THEREOF AS AN ANTITUMOR AGENT AND PHOSPHODIESTERASE ENZYME INHIBITOR” (BIOLAB SANUS FARMACEUTICA LTDA, priority 2019, published 2022):

Columns and labels:
PDE5A1 enzyme = biological target: T1, PDE5A1 enzyme (Homo sapiens, UniProt O76074); assay: In vitro inhibition of human phosphodiesterase enzyme 5 (BPS Bioscience PDE5A1 assay kit, fluorescence polarization); format: biochemical
T1 construct: purchased BPS Bioscience 60350
Protocol: The evaluation of the compound is studied using BPS Bioscience enzyme assay kit (catalogue 60350). The PDE5A1 Assay kit is designed for identification of PDE5A1 inhibitors using fluorescence polarization. The assay is based on the binding of a fluorescent nucleotide monophosphate generated by PDE5A1 enzyme to the binding agent.
In this methodology only two simple steps on a microtiter plate are required for PDE5A1 reactions. First, the fluorescently labeled cGMP is incubated with PDE5A1 for 1 hour. Second, the binding agent is added to the reaction mixture to produce a change in fluorescent polarization that can then be measured using a fluorescence reader equipped for the measurement of fluorescence polarization.
For the assay the storage reagent FAM-Cyclic-3′, 5′-GMP (20 μM) is diluted with PDE assay buffer to achieve the solution with a […] concentration; the PDE5A1 enzyme is thawed and diluted with the PDE buffer obtaining a PDE5A1 solution at 10 pg/mL.
The assay compounds are diluted with DMSO 100% (v/v) at a concentration of 1000 μM and subsequently diluted in a Sodium chloride 0.9% solution to obtain a curve of concentrations of interest for the assay. The compounds are diluted in concentrations of: 10 nM, 30 nM, 50 nM, 100 nM, 300 nM, 500 nM, 1 μM, 3 μM, 5 μM (DMSO 10% v/v).
The study is comprised of groups: (i) substrate control; (ii) positive control (KIT); (iii) samples in several concentrations; (iv) tadalafil (comparative control). Each parameter (group) is triple labeled.
For the 4 groups there is added, to each microplate well, […] of the FAM-Cyclic-3′ reagent, 5′-GMP (200 μM).
To the substrate control group there is added, to each well, […] of vehicle (DMSO 10% v/v) and […] PDE Buffer.
To the positive control group there is added, to each well, […] of vehicle (DMSO 10% v/v).
To the tadalafil group: there is added […] of the solution in the concentrations of interest.
To the test group there is added […] of the sample solution (test compound)
OBSERVATION: the parameters tested are in triplicate.
To begin the reaction, add […] of the PDE5A1 enzyme (diluted as described above) to the microplate wells designated as Positive Control and Samples (test and tadalafil), and incubate the microplate, for 1 hour, at a temperature of 25° C.
After the incubation period, the reaction is interrupted by the addition, in all the wells, of […] of the binding agent solution and the microplate is incubated for 30 minutes, under light stirring, at room temperature. The reading of the microplate is carried out in Polarized Fluorescence (475-495 nm—excitation and 518-538 nm—emission detection) 500 nanoseconds integration time.

[1] = tested on: PC3-human prostate cancer cells; assay: Antiproliferative effect in tumor cell culture (CYQuant intracellular DNA, 72 hours), PC3; format: cell-based; details: for % Cell Proliferation Inhibition (intracellular DNA) PC-3 (average ± E.P.M.): 72 hours
Protocol: (§1) For the execution of the assay, the compounds are diluted in DMSO 100% (v/v) at a concentration of 1000 μM and subsequently diluted in a Sodium Chloride solution 0.9% to obtain the storage solutions of interest for use in the assays. The final concentration of interest will be directly diluted in the cell culture medium. For the assay there are used the following tumor cell lineages: PC3-human prostate cancer cells; LNCAP-human prostate cancer cells; DU145-human prostate cancer; MNK45-human gastric cancer and RT4-human bladder cancer cells. The tumor cell lineages are maintained in culture according to standard procedures established by the Cell Bank of Rio de Janeiro (lineage place of origin). For the assay, the tumor cells are seeded in the concentration of 10.000 cells per well (final volume of the reaction of […]), the plate is incubated for 8 hours, for the cells to adhere to the wall of the wells. After this period, the plate is divided in groups: • (a) test group: […] of the samples were added (test compound) in the concentrations of interest; • (b) positive control group: […] of culture medium were added (100% of cell proliferation); • (c) negative control group: 200 mL of culture medium and […] of the vehicle used were added to dilute the compounds (without cells—zero proliferation); • (d) control group: […] were added of the vehicle used to dilute the compounds. This group is important to evaluate whether the vehicle used interferes in the cell proliferation. OBSERVATION: the treatment with the concentrations of samples (test compounds) and of the controls are carried out in triplicate. Incubate the plate for 72 hours in a CO2 kiln at 37° C. After the incubation period, add […]/well of the solution with DNA marker from the CYQuant Kit and incubate the plate, for 60 minutes, in a CO2 incubator at 37° C. The fluorescence intensity is determined using a fluorescence microplate reader with 485 nm excitation and 530 nm emission detection. The results obtained were normalized relative to the positive control group (100% proliferation). For the compounds there are prepared the storage solutions in the concentrations of: 100 nM, 1 μM, 3 μM, 5 μM, 10 μM and 30 μM (DMSO 10% v/v). While the final concentrations in the test are of: 10 nM, 100 nM, 300 nM, 500 nM, 1000 nM and 3000 nM (in DMSO 1% v/v).

[2] = tested on: LNCAP-human prostate cancer cells; assay: Antiproliferative effect in tumor cell culture (CYQuant intracellular DNA, 72 hours), LNCAP; format: cell-based; details: for % Cell Proliferation Inhibition (intracellular DNA) LNCAP (average ± E.P.M.): 72 hours
Protocol: as §1

[3] = tested on: DU145-human prostate cancer; assay: Antiproliferative effect in tumor cell culture (CYQuant intracellular DNA, 72 hours), DU145; format: cell-based; details: for % Cell Proliferation Inhibition (intracellular DNA) DU145 (average ± E.P.M.): 72 hours
Protocol: as §1

[4] = tested on: MNK45-human gastric cancer; assay: Antiproliferative effect in tumor cell culture (CYQuant intracellular DNA, 72 hours), MNK45; format: cell-based
Protocol: as §1

[5] = tested on: RT4-human bladder cancer cells; assay: Antiproliferative effect in tumor cell culture (CYQuant intracellular DNA, 72 hours), RT4; format: cell-based; details: for % Cell Proliferation Inhibition (intracellular DNA) RT4 (average ± E.P.M.): 72 hours
Protocol: as §1

CC(CO)N1CC(=O)N2C(=C(c3c[nH]c4ccccc34)OC2c2ccc3c(c2)OCO3)C1=O (mixture of isomers) [BL-380, (R)-3-(benzo[d][1,3]dioxol-5-yl) -7-((R)-1-hydroxypropan-2-yl)-1-(1H-indole-3-yl)-6,7-dihydro-3H-oxazole[3,4-a]pyrazine-5,8-dione with (S)-3-(benzo[d][1,3]dioxol-5-yl)-7-((R)-1-hydroxypropan-2-yl)-1-(1H-indole-3-yl)-6,7-dihydro-3H-oxazole[3,4-a]pyrazine-5,8-dione]
% of Inhibition (PDE5A1) (PDE5A1 enzyme; 10 nM): 0%
concentration as from which PDE5 inhibition was observed (PDE5A1 enzyme; 10 nM to 5000 nM tested): ≥ 300 nM
% of Inhibition (PDE5A1) (PDE5A1 enzyme; 30 nM): 0%
% of Inhibition (PDE5A1) (PDE5A1 enzyme; 50 nM): 0%
% of Inhibition (PDE5A1) (PDE5A1 enzyme; 100 nM): 0%
% of Inhibition (PDE5A1) (PDE5A1 enzyme; 300 nM): 15 ± 3%
% of Inhibition (PDE5A1) (PDE5A1 enzyme; 500 nM, 0.5 µM): 25 ± 3%
% of Inhibition (PDE5A1) (PDE5A1 enzyme; 1000 nM, 1 µM): 55 ± 4%
% of Inhibition (PDE5A1) (PDE5A1 enzyme; 3000 nM, 3 µM): 65 ± 2%
% of Inhibition (PDE5A1) (PDE5A1 enzyme; 5000 nM): 78 ± 1%
PDE5 inhibition, result in words (PDE5A1 enzyme; over the concentrations tested): capable of inhibiting the PDE5 in a dose-dependent manner
% Cell Proliferation Inhibition (intracellular DNA) PC-3 (average ± E.P.M.) ([1]; 10 nM, 0.01 µM): 39 ± 6%
% Cell Proliferation Inhibition (intracellular DNA) PC-3 (average ± E.P.M.) ([1]; 100 nM, 0.1 µM): 25 ± 5%
% Cell Proliferation Inhibition (intracellular DNA) PC-3 (average ± E.P.M.) ([1]; 300 nM, 0.3 µM): 28 ± 2%
% Cell Proliferation Inhibition (intracellular DNA) PC-3 (average ± E.P.M.) ([1]; 500 nM, 0.5 µM): 48 ± 6%
% Cell Proliferation Inhibition (intracellular DNA) PC-3 (average ± E.P.M.) ([1]; 1000 nM, 1 µM): 40 ± 3%
% Cell Proliferation Inhibition (intracellular DNA) PC-3 (average ± E.P.M.) ([1]; 3000 nM): 54 ± 4%
antiproliferative effect, result in words ([1]; PC3 prostate cancer tumor lineage): antiproliferative effect
% Cell Proliferation Inhibition (intracellular DNA) LNCAP (average ± E.P.M.) ([2]; 10 nM, 0.01 µM): 26 ± 10%
% Cell Proliferation Inhibition (intracellular DNA) LNCAP (average ± E.P.M.) ([2]; 100 nM, 0.1 µM): 12 ± 3%
% Cell Proliferation Inhibition (intracellular DNA) LNCAP (average ± E.P.M.) ([2]; 300 nM, 0.3 µM): 29 ± 6%
% Cell Proliferation Inhibition (intracellular DNA) LNCAP (average ± E.P.M.) ([2]; 500 nM, 0.5 µM): 27 ± 2%
% Cell Proliferation Inhibition (intracellular DNA) LNCAP (average ± E.P.M.) ([2]; 1000 nM, 1 µM): 37 ± 2%
% Cell Proliferation Inhibition (intracellular DNA) LNCAP (average ± E.P.M.) ([2]; 3000 nM): 48 ± 6%
antiproliferative effect, result in words ([2]; LNCAP prostate cancer tumor lineage): antiproliferative effect
% Cell Proliferation Inhibition (intracellular DNA) DU145 (average ± E.P.M.) ([3]; 100 nM, 0.1 µM): 12 ± 4%
% Cell Proliferation Inhibition (intracellular DNA) DU145 (average ± E.P.M.) ([3]; 300 nM, 0.3 µM): 10 ± 5%
% Cell Proliferation Inhibition (intracellular DNA) DU145 (average ± E.P.M.) ([3]; 500 nM, 0.5 µM): 12 ± 2%
% Cell Proliferation Inhibition (intracellular DNA) DU145 (average ± E.P.M.) ([3]; 1000 nM, 1 µM): 10 ± 3%
% Cell Proliferation Inhibition (intracellular DNA) DU145 (average ± E.P.M.) ([3]; 3000 nM, 3 µM): 31 ± 5%
antiproliferative effect, result in words ([3]; DU145 prostate cancer tumor lineage): antiproliferative effect
% Cell Proliferation Inhibition (intracellular DNA) MNK45 (average ± E.P.M.) ([4]; 100 nM, 0.1 µM): 7 ± 2%
% Cell Proliferation Inhibition (intracellular DNA) MNK45 (average ± E.P.M.) ([4]; 300 nM, 0.3 µM): 0%
% Cell Proliferation Inhibition (intracellular DNA) MNK45 (average ± E.P.M.) ([4]; 500 nM, 0.5 µM): 0%
% Cell Proliferation Inhibition (intracellular DNA) MNK45 (average ± E.P.M.) ([4]; 1000 nM, 1 µM): 0%
% Cell Proliferation Inhibition (intracellular DNA) MNK45 (average ± E.P.M.) ([4]; 3000 nM, 3 µM): 16 ± 5%
% Cell Proliferation Inhibition (intracellular DNA) RT4 (average ± E.P.M.) ([5]; 100 nM, 0.1 µM): 8 ± 6%
% Cell Proliferation Inhibition (intracellular DNA) RT4 (average ± E.P.M.) ([5]; 300 nM, 0.3 µM): 5 ± 5%
% Cell Proliferation Inhibition (intracellular DNA) RT4 (average ± E.P.M.) ([5]; 500 nM, 0.5 µM): 3 ± 5%
% Cell Proliferation Inhibition (intracellular DNA) RT4 (average ± E.P.M.) ([5]; 1000 nM, 1 µM): 3 ± 1%
% Cell Proliferation Inhibition (intracellular DNA) RT4 (average ± E.P.M.) ([5]; 3000 nM, 3 µM): 58 ± 4%
antiproliferative effect, result in words ([5]; RT4 bladder cancer tumor lineage): antiproliferative effect
